Measurements taken from patent publication US10308617B2, “Triazole benzamide derivatives and the compositions and methods of treatment regarding the same” (An2H Discovery Limited, priority 2016, dated 2019).
pIC50: −log10 of the molar value. Like-named read-outs stand apart in the source and are kept apart here.

How the values were obtained:
[1] = Oral Bioavailability (PO) and Pharmacokinetics Assay; assay type: in vivo, Sprague-Dawley rats; conditions: rat; for Cmax: read-out: C0 or Cmax (ng/mL): Cmax; for half-life: read-out: T½ (converted)
[2] = as above; assay type: in vivo, Sprague-Dawley rats; conditions: rat; for AUC(0-t) / clearance / C0 (back-extrapolated initial plasma concentration after IV dose) / Vd: male, Sprague-Dawley, plasma; for C0 (back-extrapolated initial plasma concentration after IV dose): read-out: C0 or Cmax (ng/mL): C0; for Vd: iv, read-out: Vss; for Vd / Vss: 1 mg/kg
Method: The pharmacokinetics and oral bioavailability of various compounds was evaluated following IV or PO administration to fasted male Sprague-Dawley rats (N=3/route/dose). Each compound was administered to fasted male Sprague-Dawley rats as a single dose of 1 mg/kg (IV) or 5 mg/kg (PO). For IV dosing, each compound was formulated in 10% DMA/15% Solutol/75% HPβ-CD (20%) as a 1 mg/mL solution for IV (1 mL/kg) and for PO (5 mL/kg) administrations.
Blood samples (0.250 mL) were collected into EDTA tubes then processed to generate plasma samples. Blood samples were collected at pre-dose, 0.083, 0.25, 0.5, 1, 2, 4, 8 and 24 hours post-dose administration. Plasma concentrations of each compound were determined using LC-MS/MS with a lower limit of quantitation of 1.0 ng/mL. The pharmacokinetic parameters were determined by non-compartmental methods using WinNonlin.
The pharmacokinetic parameters of each compound were determined by non-compartmental analysis (Model 201 for IV administration and Model 200 for PO administration) using WinNonlin Version 6.4 (Pharsight, Mountain View, Calif.). The area under the curve from the time of dosing to the last measurable concentration, AUC(0-t), was calculated by the linear trapezoidal rule. The area under the concentration-time curve extrapolated to infinity, AUC(0-∞), was calculated as follows: AUC(0-∞)=AUC(0-t)+Clast/k
Where Clast is the last measurable concentration and k is the first order rate constant associated with the terminal elimination phase, estimated by linear regression of log concentration versus time. The half-life (T1/2) of the terminal elimination phase was estimated based on the following equation: T1/2=0.693/k
K was determined based on at least three timepoints with R^2≥0.9. Additional parameters were calculated as follows: CL=Dose/AUC(0-∞)
Where CL is the clearance of An2H compound in L/hr/kg, Dose is the administered dose in mg/kg. Mean residence time (MRT) was calculated as follows: MRT=AUMC(0-∞)/AUC(0-∞)
Where area under the first moment curve extrapolated to infinity (AUMC(0-∞)) was calculated as follows: AUMC(0-∞)=AUMClast+tlast*Clast/k+Clast/k^2
The steady state volume of distribution (Vss) was calculated as follows: Vss=CL×MRT.
The oral bioavailability based on AUC(0-t) was calculated as follows: F (%)=AUCPO/AUCIV×DoseIV/DosePO×100. For IV administration, the initial concentration, Co is reported and is an extrapolated value. For PO administration, the maximum concentration, Cmax is report and is an observed value.

[3] = test system: TOV-21G (ovarian); experiment: Cancer Cell Proliferation Assay (acid phosphatase, 72 hrs); assay type: cell-based; conditions: Homo sapiens, TOV21G, read-out: IC50 on cancer cell line proliferation, TOV-21G
Method: (§1) Measurement of the inhibitive effect of compounds on cancer cell proliferation was performed. Various cell lines were tested, including HCT-116 (colon); A549 (lung); TOV-21G (ovarian); Calu-6 (lung); H1703 (Lung); LS-174T (colon); and SKOV3 (ovarian). The assays were performed under the following conditions: Cells are harvested at a concentration of 4×10^4 cells/ml in media. Volumes of 100 μl/well of these cell suspensions were added to a 96 well plate using a multichannel pipette. Plates were gently agitated to ensure an even dispersion of cells over a given plate. Cells were then incubated at 37° C., 5% CO^2 overnight. Following this, 100 μl of compound at varying concentrations was added to wells in triplicate. Control wells are those with 100 μl media containing 0.33% DMSO added to cell suspension (this is the equivalent volume of DMSO found in the highest concentration of drug). Plates were then gently agitated, as above, and incubated at 37° C., 5% CO2 for 72 hrs (control wells have reached 80-90% confluency). Assessment of cell proliferation in the presence of the compound was determined by the acid phosphatase assay.
(§2) Following the incubation period of 72 hrs, media was removed from the plates. Each well on the plate was washed twice with 100 μl PBS. This was then removed and 100 μl of freshly prepared phosphatase substrate (10 mM p-nitrophenol phosphate in 0.1M sodium acetate, 0.1% triton X-100, pH 5.5) was added to each well. The plates were then incubated in the dark at 37° C. for 2 hours. Colour development was monitored during this time. The enzymatic reaction was stopped by the addition of 50 μl of 1N NaOH. The plate was read in a dual beam plate reader at 405 nm with a reference wavelength of 620 nm. The absorbance reading of the latter is subtracted from the former, and the effect of the drug on cell proliferation was then measured as a percentage against the control cells (DMSO), which is taken as 0% inhibition. […] FIG. 14 A-K also show the % inhibition curves of various compounds on these cancer cell lines with the 72 hrs proliferation assay.

[4] = test system: HCT-116 (colon); experiment: as above; assay type: cell-based; conditions: Homo sapiens, read-out: IC50 on cancer cell line proliferation, HCT-116
Method: as §1, §2

[5] = test system: LS-174T (colon); experiment: as above; assay type: cell-based; conditions: Homo sapiens, LS174T, read-out: IC50 on cancer cell line proliferation, LS-174T
Method: as §1, §2

[6] = test system: H1703 (Lung); experiment: as above; assay type: cell-based; conditions: Homo sapiens, NCI-H1703, read-out: IC50 on cancer cell line proliferation, H1703
Method: as §1, §2

[7] = test system: SKOV3 (ovarian); experiment: as above; assay type: cell-based; conditions: Homo sapiens, SK-OV-3, read-out: IC50 on cancer cell line proliferation, SKOV3
Method: as §1, §2

[8] = test system: A549 (lung); experiment: as above; assay type: cell-based; conditions: Homo sapiens
Method: as §1, §2

[9] = test system: Calu-6 (lung); experiment: as above; assay type: cell-based; conditions: Homo sapiens, read-out: IC50 on cancer cell line proliferation, Calu6
Method: as §1, §2

[10] = male, Sprague-Dawley, plasma, PO 5 mg/kg
[11] = male, Sprague-Dawley, plasma, PO 5 mg/kg, read-out: F (%) oral bioavailability
[12] = male, Sprague-Dawley, plasma, iv, 1 mg/kg, IV bolus 1 mg/kg
[13] = male, Sprague-Dawley, plasma, po, 5 mg/kg, PO 5 mg/kg
[14] = read-out: IC50 on cancer cell line proliferation, A549
[15] = male, Sprague-Dawley, plasma, IP 3 mg/kg

SMILES	Tmax [1, 10] [h]	Cmax [1, 10] [ng/mL]	bioavailability [1, 11] [%]	half-life [1, 12] [h]	half-life [1, 13] [h]	AUC(0-t) ([2]; IV bolus 1 mg/kg) [ng·h/mL]	clearance ([2]; IV bolus 1 mg/kg) [mL/min/kg]	C0 (back-extrapolated initial plasma concentration after IV dose) ([2]; IV bolus 1 mg/kg) [ng/mL]	AUC(0-t) ([2]; PO 5 mg/kg) [ng·h/mL]	Vd ([2]; IV bolus 1 mg/kg) [L/kg]	Vss ([2]; IV bolus 1 mg/kg) [L/kg]	Oral Bioavilability (PO PK) F [1]	pIC50 [3]	pIC50 [4]	pIC50 [5]	pIC50 [6]	pIC50 [7]	pIC50 [8, 14]	other results
O=C(Nc1nc(NC(=O)c2ccccc2)n(-c2ccccc2)n1)c1ccccc1 [Compound A, N,N′-(1-phenyl-1H-1,2,4-triazole-3,5-diyl)dibenzamide]	0.417	249	6.85	0.85	1.6	1100	15.7	4520	371	0.38	0.381								bioavailability ([1]; male, Sprague-Dawley, plasma, IV bolus 1 mg/kg, read-out: F (%)): 100%; T½ ([1]; PO 5 mg/kg, 5 mg/kg): 1.62 h
O=C(/C=C/c1ccccc1)Nc1nc(NC(=O)c2ccccc2)nn1-c1ccccc1 [Compound C, N-(5-cinnamamido-1-phenyl-1H-1,2,4-triazol-3-yl)benzamide]	0.38	50.5	2.4	0.71	2.3	1030	16.6	3980	114	0.42	0.416	F = 2%	5.76	5.78	5.66	5.59	5.50	5.65	
Cc1ccccc1C(=O)Nc1nc(NC(=O)c2ccccc2C)n(-c2ccccc2)n1 [Compound F, 2-methyl-N-[5-[(2-methylbenzoyl)amino]-1-phenyl-1,2,4-triazol-3-yl]benzamide]				2.5		4270	4.03	5980		0.406			5.65	5.64	5.57		5.48	5.58	AUC(0-t) [1, 15]: 9590 ng·h/mL; Tmax [1, 15]: 1.3 h; Cmax [1, 15]: 1470 ng/mL; bioavailability ([1]; male, Sprague-Dawley, plasma, IP 3 mg/kg, read-out: F systemic bioavailability): 75%; half-life ([1]; male, Sprague-Dawley, plasma, ip, 3 mg/kg, IP 3 mg/kg): 3.2 h

Continued, in another order:

Tmax [1, 10] [h]	Cmax [1, 10] [ng/mL]	bioavailability [1, 11] [%]	half-life [1, 12] [h]	half-life [1, 13] [h]	AUC(0-t) ([2]; IV bolus 1 mg/kg) [ng·h/mL]	clearance ([2]; IV bolus 1 mg/kg) [mL/min/kg]	C0 (back-extrapolated initial plasma concentration after IV dose) ([2]; IV bolus 1 mg/kg) [ng/mL]	AUC(0-t) ([2]; PO 5 mg/kg) [ng·h/mL]	Vd ([2]; IV bolus 1 mg/kg) [L/kg]	Vss ([2]; IV bolus 1 mg/kg) [L/kg]	Oral Bioavilability (PO PK) F [1]	pIC50 [3]	pIC50 [4]	pIC50 [5]	pIC50 [6]	pIC50 [7]	pIC50 [8, 14]	SMILES	other results
												6.12	6.31	6.30	5.52	6.13	6.08	Cc1ccccc1C(=O)Nc1nc(-c2ccccn2)nn1-c1ccc(OC(F)(F)F)cc1 [Compound H3]	pIC50 [9]: 5.62
1.33	91	6.2	0.69	1.7	1370	12.2	6740	410	0.4	0.401	F = 6%							Cc1ccccc1C(=O)Nc1nc(NC(=O)c2ccccc2)n(-c2ccccc2)n1 [Compound H]	
0.42	52.4	4	0.6	2.1	902	18.4	2120	172	0.71	0.707	F = 4%	5.87	5.72	5.51	5.46	5.50	5.60	Cc1ccccc1C(=O)Nc1nc(NC(=O)c2ccccc2)nn1-c1ccccc1 [Compound K, N-(5-benzamido-2-phenyl-1,2,4-triazol-3-yl)-2-methyl-benzamide]	
												6.00	6.03	5.82		5.91		O=C(Nc1nc(Nc2ncnc3ccccc23)n(-c2ccccc2)n1)c1ccccc1 [Compound L, N-[1-phenyl-5-(quinazolin-4-ylamino)-1,2,4-triazol-3-yl]benzamide]	pIC50 [9]: 5.64; pIC50 ([8]; A549, 72 h, heading: IC50 on cancer cell line proliferation): 5.81
												5.80	5.79	5.64	~5.60	5.68	5.67	Cc1ccccc1C(=O)Nc1nc(-c2ccccn2)nn1-c1ccccc1 [Compound Q2]	
